Laboratory results published in patent publication US11655459B2, “Methods for reprogramming somatic cells” (Whitehead Institute for Biomedical Research, priority 2003, dated 2023).
Values joined by “and” are separate entries in the source; they are usually repeats but may differ in a detail not shown here. Equal entries are not always repeated.

System: fibroblasts derived from tail biopsies of mice that carry the inducible Oct4 transgene
Assay: Nuclear transfer experiment: in vitro development of clones derived from Oct4-induced fibroblasts
Type: cell-based, mouse
Experimental: Nuclear transfer was performed on fibroblasts derived from tail biopsies of mice that carry the inducible Oct4 transgene. Dox induction was for 24 hours prior to nuclear transfer. Cloned embryos were then activated and cultured to the blastocyst stage to derive ES cells as described previously (Hochedlinger and Jaenisch, 2002). […] [table]

[1] = Dox induction 24 hours prior to nuclear transfer, fraction of eggs with pronucleus formation, single experiment, listed as Dox
[2] = Oct4 induced, Expt. #3 and #4 together

## C[C@H]1c2cccc(O)c2C(=O)C2=C(O)[C@]3(O)C(=O)C(C(N)=O)=C(O)[C@@H](N(C)C)[C@@H]3[C@@H](O)[C@@H]21 [doxycycline]
[1]
  Blastocysts (% PN): 27% and 21%
  ES lines (% PN): 5% and 9%
Dox induction 24 hours prior to nuclear transfer, single experiment
  Blastocysts (number): 10
Dox induction 24 hours prior to nuclear transfer, single experiment, listed as Dox
  ES lines (number): 2 and 4
[2]
  Blastocysts (% PN), average of experiments: 24%
  ES lines (% PN), average of experiments: 7%
